From patent publication US20190204335A1, “Assay Method For Determining The Risk Of Pre-Eclampsia” (The Queen's University of Belfast, priority 2016, published 2019)
Entries after “also recorded” stand apart in the source; their conditions may differ.

How the values were obtained:
FKBPL [1] = assay: FKBPL protein level in HUVEC under hypoxia or normoxia (Western blotting); format: cell-based, human; details: 24 h, metformin 10 μM
Experimental: HUVEC cells were seeded and then exposed to hypoxia (1%) or normoxia (21%) for 24 h in the presence of metformin or vehicle control (VC). Protein lysates were prepared and FKBPL protein level measured using Western blotting.

FKBPL [2] = assay: FKBPL mRNA levels in HTR8.SV.neo cells; format: cell-based; details: 10 μM, 24 h, serum-containing medium
Experimental: (§1) Trophoblast (HTR8.SV.neo, BeWo) and endothelial cells (HUVEC) were exposed to: • i. diabetic stimuli, in the form of highly oxidised and glycated low density lipoproteins (HOG-LDL, 25 μg/ml)/4HNE (10 μM) or high glucose (10, 20, 30, 40 mM); or • ii. hypoxia (1%) or DMOG (10 μM), before FKBPL/SIRT1 protein and RNA levels were measured.

FKBPL [3] = assay: FKBPL protein expression in BeWo trophoblast cell line; format: cell-based; details: BeWo cells, 10 μM, serum-containing medium
Experimental: as §1

Row | Structure (SMILES) | FKBPL expression normalised to vehicle control (FKBPL [1]; hypoxia (1%)) | FKBPL expression normalised to vehicle control (FKBPL [1]; normoxia (21%)) | FKBPL mRNA levels (FKBPL [2]) | FKBPL protein expression (FKBPL [3]) | FKBPL mRNA levels (FKBPL [2]; listed as 4HNE) | FKBPL protein expression (FKBPL [3]; listed as 4HNE)
1 | CN(C)C(=N)N=C(N)N [metformin] | increasing the protein expression of FKBPL; also recorded: upregulates FKBPL | No change in FKBPL levels; also recorded: does not affect levels of FKBPL | – | – | – | –
2 | COC(=O)CNC(=O)C(=O)OC [DMOG] | – | – | reduction in FKBPL mRNA levels; also recorded: downregulation in FKBPL mRNA levels | reduction; also recorded: downregulation of FKBPL protein expression | – | –
3 | CCCCCC(O)/C=C/C=O (centres unmarked) [4-HNE] | – | – | No change | downregulation of FKBPL protein expression | No change in FKBPL mRNA levels | reduction in FKBPL protein levels
